Values of other authors, collected in patent publication US20220400668A1, “MICROEMULSION COMPOSITIONS OF TOPRAMEZONE” (BASF SE, priority 2018, published 2022).

Details: 25° C.

Cc1c(C(=O)c2cnn(C)c2O)ccc(S(C)(=O)=O)c1C1=NOCC1 [topramezone, 4-[3-(4,5-dihydro-1,2-oxazol-3-yl)-2-methyl-4-methylsulfonylbenzoyl]-2-methyl-1H-pyrazol-3-one]
solubility in water: about 0.305 g/L
